Bounds are passed on as bounds.

The target in this test is T1, CDK2 (Homo sapiens, UniProt P24941).
T1 construct: HEK293 clonal lines with CRISPR KI HiBiT tag on CDK2 proteins; host or cells: HEK293 clonal line, CRISPR knock-in HiBiT-CDK2, stably expressing LgBiT
The experiment in a line: NanoBiT assay (CDK2 degradation). The class given is cell-based. Conditions: HEK293, HEK293 clonal line with CRISPR KI HiBiT tag on CDK2, Endurazine live cell substrate, 24 hours. The procedure: HEK293 clonal lines with CRISPR KI HiBiT tag on either CDK2 proteins and stably expressing LgBiT protein were obtained from Promega (Madison, WI). Cells were plated at 5000 cells per well using Multiflo (BioTek) in 384-well white solid bottom plates (Corning, 3570BC) in 25 ul volume in DMEM media (DMEM, high glucose, HEPES, no phenol red (ThermoFisher Scientific, 21063029)) containing 10% FBS (Corning, 35-075-CV), 1% Penicillin/Streptomycin ((ThermoFisher Scientific, 15140-122), and 1% Endurazine (Nano-Glo Endurazine Live Cell Substrate (Promega, N2571)). Cells were incubated for 16 hours at 37 C, 5% CO2. 75 nL of a compound at 30 μM were dosed into the plate using an Echo® 650 liquid handler (Labcyte). Cells were incubated at 37° C., 5% CO2 for 24 hours and then signal was read on a Pherastar FSX using “LUM plus” optic module.
Analysis was performed in Scinamic (Scinamic, Cambridge, MA). Luminescence response (R) was calculated by the formula: response=100*(S−N)/(P−N) where S is the signal of the well, N and P the mean negative and positive control values respectively of the same plate. The luminescence response was then fitted in Scinamic using a 3-parameter agonist logistic fit (hillslope=1, EC50>0, top/bottom unconstrained).
Background: The HiBiT peptide binds its large partner to form an active luciferase.
What is called Dmax is the largest share of the target that was removed. As for `C[C@@H]1CC[C@H](COC(=O)NCc2ccc3c(c2)C(=O)N(C2CCC(=O)NC2=O)C3)O1` (mixture of isomers) [Compound 68, rac-[(2R,5R)-5-methyloxolan-2-yl]methyl N-{[2-(2,6-dioxopiperidin-3-yl)-3-oxo-2,3-dihydro-1H-isoindol-5-yl]methyl}carbamate], the Dmax was 10 to 50%.

As for `O=C1CCC(N2Cc3ccc(CNC(=O)OC[C@@H]4C[C@H]4F)cc3C2=O)C(=O)N1` (mixture of isomers) [Compound 75, rac-[(1R,2S)-2-fluorocyclopropyl]methyl N-{[2-(2,6-dioxopiperidin-3-yl)-3-oxo-2,3-dihydro-1H-isoindol-5-yl]methyl}carbamate], the Dmax was at most 10%.

Regarding `C[C@@H]1CCOC1COC(=O)NCc1ccc2c(c1)C(=O)N(C1CCC(=O)NC1=O)C2` (mixture of isomers) [Compound 76, rac-[(2R,3S)-3-methyloxolan-2-yl]methyl N-{[2-(2,6-dioxopiperidin-3-yl)-3-oxo-2,3-dihydro-1H-isoindol-5-yl]methyl}carbamate], the Dmax was at most 10%.

In the case of `O=C1CCC(N2Cc3ccc(CNC(=O)O[C@H]4C[C@@H]5C[C@H]4CC5(F)F)cc3C2=O)C(=O)N1` (mixture of isomers) [Compound 92, rac-(1R,2R,4R)-5,5-difluorobicyclo[2.2.1]heptan-2-yl N-{[2-(2,6-dioxopiperidin-3-yl)-3-oxo-2,3-dihydro-1H-isoindol-5-yl]methyl}carbamate], the Dmax was at most 10%.

On to `CCC1(COC(=O)NCc2ccc3c(c2)C(=O)N(C2CCC(=O)NC2=O)C3)COC1` (stereo not shown) [Compound 42, (3-ethyloxetan-3-yl)methyl N-{[2-(2,6-dioxopiperidin-3-yl)-3-oxo-2,3-dihydro-1H-isoindol-5-yl]methyl}carbamate], for which the Dmax fell in the range of 10 to 50%.

Regarding `O=C1CCC(N2Cc3ccc(CNC(=O)OCC#CC4CC4)cc3C2=O)C(=O)N1` (stereo not shown) [Compound 44, 3-cyclopropylprop-2-yn-1-yl N-{[2-(2,6-dioxopiperidin-3-yl)-3-oxo-2,3-dihydro-1H-isoindol-5-yl]methyl}carbamate], the Dmax was 10 to 50%.

Compound `CC(=O)N1CCC(COC(=O)NCc2ccc3c(c2)C(=O)N(C2CCC(=O)NC2=O)C3)C1` (stereo not shown) [Compound 50, (1-acetylpyrrolidin-3-yl)methyl N-{[2-(2,6-dioxopiperidin-3-yl)-3-oxo-2,3-dihydro-1H-isoindol-5-yl]methyl}carbamate] registered a Dmax of at most 10%.

`O=C1CCC(N2Cc3ccc(CNC(=O)OCC4CCCCS4)cc3C2=O)C(=O)N1` (stereo not shown) [Compound 53, (thian-2-yl)methyl N-{[2-(2,6-dioxopiperidin-3-yl)-3-oxo-2,3-dihydro-1H-isoindol-5-yl]methyl}carbamate] registered a Dmax of 10 to 50%.

`CC(C)O[C@H]1C[C@@H](OC(=O)NCc2ccc3c(c2)C(=O)N(C2CCC(=O)NC2=O)C3)C1` (stereo partly shown) [Compound 55, (1s,3s)-3-(propan-2-yloxy)cyclobutyl N-{[2-(2,6-dioxopiperidin-3-yl)-3-oxo-2,3-dihydro-1H-isoindol-5-yl]methyl}carbamate] had a Dmax of 10 to 50%.

Turning to `COCC1(COC(=O)NCc2ccc3c(c2)C(=O)N(C2CCC(=O)NC2=O)C3)CCCC1` (stereo not shown) [Compound 57, [1-(methoxymethyl)cyclopentyl]methyl N-{[2-(2,6-dioxopiperidin-3-yl)-3-oxo-2,3-dihydro-1H-isoindol-5-yl]methyl}carbamate], the Dmax is at most 10%.

The compound `O=C1CCC(N2Cc3ccc(CNC(=O)OCC4CSC4)cc3C2=O)C(=O)N1` (stereo not shown) [Compound 60, (thietan-3-yl)methyl N-{[2-(2,6-dioxopiperidin-3-yl)-3-oxo-2,3-dihydro-1H-isoindol-5-yl]methyl}carbamate] gave a Dmax of 10 to 50%.

The compound `O=C1CCC(N2Cc3ccc(CNC(=O)OC[C@H]4[C@@H]5COC[C@@H]54)cc3C2=O)C(=O)N1` (stereo partly drawn) [Compound 61, [(1R,5S,6R)-3-oxabicyclo[3.1.0]hexan-6-yl]methyl N-{[2-(2,6-dioxopiperidin-3-yl)-3-oxo-2,3-dihydro-1H-isoindol-5-yl]methyl}carbamate] showed a Dmax of at most 10%.

Take `CC1(C)[C@@H]2C[C@@H](OC(=O)NCc3ccc4c(c3)C(=O)N(C3CCC(=O)NC3=O)C4)C[C@@H]21` (stereo partly drawn) [Compound 62, (1R,3s,5S)-6,6-dimethylbicyclo[3.1.0]hexan-3-yl N-{[2-(2,6-dioxopiperidin-3-yl)-3-oxo-2,3-dihydro-1H-isoindol-5-yl]methyl}carbamate]: the Dmax lay within 50 to 80%.

`CC1(C)C2CCC1(COC(=O)NCc1ccc3c(c1)C(=O)N(C1CCC(=O)NC1=O)C3)CC2` (stereo not shown) [Compound 63, {7,7-dimethylbicyclo[2.2.1]heptan-1-yl}methyl N-{[2-(2,6-dioxopiperidin-3-yl)-3-oxo-2,3-dihydro-1H-isoindol-5-yl]methyl}carbamate] registered a Dmax of 10 to 50%.

With `C[C@@H](OC(=O)NCc1ccc2c(c1)C(=O)N(C1CCC(=O)NC1=O)C2)C1CC12CC2` (stereo partly drawn) [Compound 71, (1R)-1-{spiro[2.2]pentan-1-yl}ethyl N-{[2-(2,6-dioxopiperidin-3-yl)-3-oxo-2,3-dihydro-1H-isoindol-5-yl]methyl}carbamate], the Dmax is at most 10%.

The compound `O=C1CCC(N2Cc3ccc(CNC(=O)OCCC4CC4(F)F)cc3C2=O)C(=O)N1` (stereo not shown) [Compound 78, 2-(2,2-difluorocyclopropyl)ethyl N-{[2-(2,6-dioxopiperidin-3-yl)-3-oxo-2,3-dihydro-1H-isoindol-5-yl]methyl}carbamate] gave a Dmax of at most 10%.

`O=C1CCC(N2Cc3ccc(CNC(=O)OCC4CCCS4(=O)=O)cc3C2=O)C(=O)N1` (stereo not shown) [Compound 82, (1,1-dioxo-1lambda6-thiolan-2-yl)methyl N-{[2-(2,6-dioxopiperidin-3-yl)-3-oxo-2,3-dihydro-1H-isoindol-5-yl]methyl}carbamate] returned a Dmax of at most 10%.

Regarding `CC1(COC(=O)NCc2ccc3c(c2)C(=O)N(C2CCC(=O)NC2=O)C3)CCCCC1` (stereo not shown) [Compound 85, (1-methylcyclohexyl)methyl N-{[2-(2,6-dioxopiperidin-3-yl)-3-oxo-2,3-dihydro-1H-isoindol-5-yl]methyl}carbamate], the Dmax lay within 10 to 50%.

With `CC1(C)OC[C@@H](COC(=O)NCc2ccc3c(c2)C(=O)N(C2CCC(=O)NC2=O)C3)O1` (stereo partly drawn) [Compound 87, [(4S)-2,2-dimethyl-1,3-dioxolan-4-yl]methyl N-{[2-(2,6-dioxopiperidin-3-yl)-3-oxo-2,3-dihydro-1H-isoindol-5-yl]methyl}carbamate], the Dmax is at most 10%.

`CN(C(=O)OC(C)(C)C)C1CC(COC(=O)NCc2ccc3c(c2)C(=O)N(C2CCC(=O)NC2=O)C3)C1` (stereo not shown) [Compound 96, (3-{[(tert-butoxy)carbonyl](methyl)amino}cyclobutyl)methyl N-{[2-(2,6-dioxopiperidin-3-yl)-3-oxo-2,3-dihydro-1H-isoindol-5-yl]methyl}carbamate] returned a Dmax of 10 to 50%.

The compound `CC1(COC(=O)NCc2ccc3c(c2)C(=O)N(C2CCC(=O)NC2=O)C3)CN(C2CC2)C1` (stereo not shown) [Compound 97, (1-cyclopropyl-3-methylazetidin-3-yl)methyl N-{[2-(2,6-dioxopiperidin-3-yl)-3-oxo-2,3-dihydro-1H-isoindol-5-yl]methyl}carbamate] showed a Dmax of at most 10%.

Regarding `CC1CN(CCOC(=O)NCc2ccc3c(c2)C(=O)N(C2CCC(=O)NC2=O)C3)C1` (stereo not shown) [Compound 98, 2-(3-methylazetidin-1-yl)ethyl N-{[2-(2,6-dioxopiperidin-3-yl)-3-oxo-2,3-dihydro-1H-isoindol-5-yl]methyl}carbamate], the Dmax lay within 10 to 50%.
